In ChEMBL document CHEMBL1201862, “PubChem BioAssay data set” (2004):
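1) Cells in 96-well plates. 2) Compound, 48 h, 5 concentrations. 3) Linear interpolation between surrounding doses. 4) Unreached endpoint = highest concentration. The concentration for 50% growth inhibition is given as GI50.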 The source made the active and inactive calls. No stated cut-off is given here; in the data, active = GI50 up to about 1.1 µM and inactive = higher.

Key:
Experiment in all cases: DTP human tumour cell line panel, 48 h
SW-620 = test system: SW-620
OVCAR-8 = test system: OVCAR-8
LOX IMVI = test system: LOX IMVI
COLO 205 = test system: COLO 205
UACC-62 = test system: UACC-62
A549 = test system: A549
M14 = test system: M14
CAKI-1 = test system: CAKI-1
SN12C = test system: SN12C
Hs-578T = test system: Hs-578T
PC-3 = test system: PC-3
HCT-116 = test system: HCT-116
SF-295 = test system: SF-295
HCC 2998 = test system: HCC 2998
HT-29 = test system: HT-29
RPMI-8226 = test system: RPMI-8226
ACHN = test system: ACHN
OVCAR-3 = test system: OVCAR-3
HOP-92 = test system: HOP-92
A498 = test system: A498
SK-MEL-5 = test system: SK-MEL-5
CCRF-CEM = test system: CCRF-CEM
SF-539 = test system: SF-539
SR = test system: SR
EKVX = test system: EKVX
U-251 = test system: U-251
MCF7 = test system: MCF7
HCT-15 = test system: HCT-15
SK-OV-3 = test system: SK-OV-3
NCI-H23 = test system: NCI-H23
DU-145 = test system: DU-145
TK-10 = test system: TK-10
T47D = test system: T47D
Malme-3M = test system: Malme-3M
RXF 393 = test system: RXF 393
SK-MEL-28 = test system: SK-MEL-28
MDA-MB-231 = test system: MDA-MB-231
NCI-H226 = test system: NCI-H226
MOLT-4 = test system: MOLT-4
UO-31 = test system: UO-31
NCI/ADR-RES = test system: NCI/ADR-RES
OVCAR-4 = test system: OVCAR-4
786-0 = test system: 786-0
SF-268 = test system: SF-268
MDA-MB-435 = test system: MDA-MB-435
SNB-75 = test system: SNB-75
NCI-H460 = test system: NCI-H460
HL-60 = test system: HL-60
MDA-N = test system: MDA-N
IGROV-1 = test system: IGROV-1
K562 = test system: K562
NCI-H522 = test system: NCI-H522
HOP-62 = test system: HOP-62
SNB-19 = test system: SNB-19
BT-549 = test system: BT-549
KM12 = test system: KM12
UACC-257 = test system: UACC-257
OVCAR-5 = test system: OVCAR-5
SK-MEL-2 = test system: SK-MEL-2

## CCCCN(C(=O)c1ccccc1)C1CCC(=O)c2[nH]c3ccccc3c21 (stereo not given)
SW-620
  GI50: 59.4 µM (inactive)
OVCAR-8
  GI50: 45.8 µM (inactive)
LOX IMVI
  GI50: 43.1 µM (inactive)
COLO 205
  GI50: 21 µM (inactive)
UACC-62
  GI50: 25 µM (inactive)
A549
  GI50: 34.4 µM (inactive)
M14
  GI50: 67.1 µM (inactive)
CAKI-1
  GI50: 20.8 µM (inactive)
SN12C
  GI50: 57.1 µM (inactive)
Hs-578T
  GI50: 16.9 µM (inactive)
PC-3
  GI50: 20.7 µM (inactive)
HCT-116
  GI50: 24.7 µM (inactive)
SF-295
  GI50: 30.5 µM (inactive)
HCC 2998
  GI50: 34.4 µM (inactive)
HT-29
  GI50: 20.5 µM (inactive)
RPMI-8226
  GI50: 19.4 µM (inactive)
ACHN
  GI50: 31.3 µM (inactive)
OVCAR-3
  GI50: 64.7 µM (inactive)
HOP-92
  GI50: 22.1 µM (inactive)
A498
  GI50: 29 µM (inactive)
SK-MEL-5
  GI50: 18.7 µM (inactive)
CCRF-CEM
  GI50: 29.6 µM (inactive)
SF-539
  GI50: 31.5 µM (inactive)
SR
  GI50: 11.2 µM (inactive)
EKVX
  GI50: 51.6 µM (inactive)
U-251
  GI50: 29.1 µM (inactive)
MCF7
  GI50: 27.4 µM (inactive)
HCT-15
  GI50: 24.5 µM
SK-OV-3
  GI50: 61.1 µM (inactive)
NCI-H23
  GI50: 62.4 µM (inactive)
DU-145
  GI50: 75 µM (inactive)
TK-10
  GI50: 37.5 µM (inactive)
T47D
  GI50: 26.9 µM (inactive)
Malme-3M
  GI50: 55 µM (inactive)
RXF 393
  GI50: 25.8 µM (inactive)
SK-MEL-28
  GI50: 90.2 µM (inactive)
MDA-MB-231
  GI50: 23.7 µM (inactive)
NCI-H226
  GI50: 29 µM (inactive)
MOLT-4
  GI50: 32.8 µM (inactive)
UO-31
  GI50: 66.5 µM (inactive)
NCI/ADR-RES
  GI50: 30.8 µM (inactive)
OVCAR-4
  GI50: 26.7 µM (inactive)
786-0
  GI50: 42.1 µM (inactive)
SF-268
  GI50: 45.4 µM (inactive)
MDA-MB-435
  GI50: 23.1 µM (inactive)
SNB-75
  GI50: 0.481 µM (active)
NCI-H460
  GI50: 35.4 µM (inactive)
HL-60
  GI50: 8.75 µM (inactive)
MDA-N
  GI50: 50 µM (inactive)
IGROV-1
  GI50: 46.3 µM (inactive)
K562
  GI50: 49.7 µM (inactive)
NCI-H522
  GI50: 38.7 µM (inactive)
HOP-62
  GI50: 40.4 µM (inactive)
SNB-19
  GI50: 43.6 µM (inactive)
BT-549
  GI50: 36.9 µM (inactive)
KM12
  GI50: 79.6 µM (inactive)
UACC-257
  GI50: 54 µM (inactive)

## O=C1Cc2c(-c3cccs3)cc(-c3ccccc3)nc2-c2ccccc2N1
SW-620
  GI50: > 100 µM (inactive)
OVCAR-8
  GI50: 1.45 µM (inactive)
LOX IMVI
  GI50: 36.5 µM (inactive)
COLO 205
  GI50: 43.4 µM (inactive)
OVCAR-5
  GI50: > 100 µM (inactive)
UACC-62
  GI50: > 100 µM (inactive)
A549
  GI50: 93.1 µM (inactive)
M14
  GI50: 28.2 µM (inactive)
CAKI-1
  GI50: 21.6 µM (inactive)
SN12C
  GI50: 67.5 µM (inactive)
Hs-578T
  GI50: 2.14 µM (inactive)
PC-3
  GI50: 47.1 µM (inactive)
HCT-116
  GI50: 32.9 µM (inactive)
SF-295
  GI50: 47.4 µM (inactive)
HCC 2998
  GI50: 47.3 µM (inactive)
HT-29
  GI50: 10.8 µM (inactive)
RPMI-8226
  GI50: > 100 µM (inactive)
ACHN
  GI50: 50.2 µM (inactive)
OVCAR-3
  GI50: 33.4 µM (inactive)
HOP-92
  GI50: > 100 µM (inactive)
A498
  GI50: > 100 µM (inactive)
SK-MEL-5
  GI50: 19.5 µM (inactive)
CCRF-CEM
  GI50: > 100 µM (inactive)
SF-539
  GI50: 22.7 µM (inactive)
SR
  GI50: > 100 µM (inactive)
EKVX
  GI50: 33.7 µM (inactive)
U-251
  GI50: > 10 µM (inactive)
MCF7
  GI50: 96.8 µM (inactive)
HCT-15
  GI50: 40.1 µM
SK-OV-3
  GI50: 24.4 µM (inactive)
NCI-H23
  GI50: > 100 µM (inactive)
DU-145
  GI50: > 100 µM (inactive)
TK-10
  GI50: > 100 µM (inactive)
T47D
  GI50: 26.4 µM (inactive)
Malme-3M
  GI50: 9.95 µM (inactive)
RXF 393
  GI50: 32.8 µM (inactive)
SK-MEL-28
  GI50: > 100 µM (inactive)
MDA-MB-231
  GI50: 9.48 µM (inactive)
NCI-H226
  GI50: 81.8 µM (inactive)
MOLT-4
  GI50: > 100 µM (inactive)
UO-31
  GI50: > 100 µM (inactive)
NCI/ADR-RES
  GI50: 18.5 µM (inactive)
OVCAR-4
  GI50: 0.855 µM (active)
786-0
  GI50: 21.9 µM (inactive)
SF-268
  GI50: 10.8 µM (inactive)
MDA-MB-435
  GI50: 78 µM (inactive)
SNB-75
  GI50: 0.0441 µM (active)
NCI-H460
  GI50: 24 µM (inactive)
MDA-N
  GI50: 21.8 µM (inactive)
SK-MEL-2
  GI50: 86.3 µM (inactive)
IGROV-1
  GI50: 13.7 µM (inactive)
K562
  GI50: > 100 µM (inactive)
NCI-H522
  GI50: 27.8 µM (inactive)
HOP-62
  GI50: 24.7 µM (inactive)
SNB-19
  GI50: 47.9 µM (inactive)
BT-549
  GI50: > 100 µM (inactive)
KM12
  GI50: 14 µM (inactive)
UACC-257
  GI50: > 100 µM (inactive)
